Data reported in US20130123287A1, “CONTROL AGENT FOR SOFT ROT AND CONTROL METHOD FOR THE SAME” (ISHIHARA SANGYO KAISHA, LTD., priority 2010, published 2013).

Key:
[1] = system: soft rot of Chinese cabbage; assay: Test for controlling soft rot of Chinese cabbage, Example 3 / Comparative Example 3 (field, cultivar Muso); format: in vivo; conditions: 500 g ai/10 a, 150 L/10 a sprayed onto planting holes before planting, 51 days after start
From the text: (§1) Frequency of the disease=[sigma(number of plants with the onset of the disease at each severity level*index of the onset of the disease)/(plants examined*4)]*100
(§2) Disease control value=[1-(frequency of the disease in the treated lot/frequency of the disease in the non-treated lot)]*100
(§3) • 0: No onset • 1: Onset in some of outer leaves (shippable) • 2: Onset in outer leaves and some of head leaves (by removing damaged parts, the resulting cabbage can be shipped as small cabbage but is ranked as grade B). • 3: Most of head leaves are inflicted with the onset of the disease or with severer damages (not shippable) • 4: Whole cabbage plant is inflicted with the onset of the disease and is dead.
442 g/l kresoxim-methyl (STROBY FLOWABLE [trade name], manufactured by BASF) was adjusted to 500 g ai/10a (0.5 g/m^2, 1131 ml Product/10a) as the amount of the active ingredient and to 150 L/10a as the volume of diluent water. […]
51 days after the start of the tests, all the plants in each lot were examined about the severity level of the disease to assess the frequency of the disease and the disease control value. The frequency of the disease and the disease control value were determined in the same manner as described above. Because soft rot is a disease with damages hardly controlled, herein, even a chemical at the level C determined by the tests of the effects can practically be used.

[2] = system: soft rot of Chinese cabbage; assay: Test for controlling soft rot of Chinese cabbage, Example 4 / Comparative Example 4 (field, cultivar Ouraku 60); format: in vivo; conditions: 500 g ai/10 a, 150 L/10 a sprayed onto planting holes before planting, 49 days after start
From the text: as §1, §2, §3
442 g/lkresoxim-methyl (STROBY FLOWABLE [trade name], manufactured by BASF) was adjusted to 500 g ai/10a (0.5 g/m^2, 1131 ml Product/10a) as the amount of the active ingredient and to 150 L/10a as the volume of diluent water.
70% w/w thiophanate methyl (Topsin M WF [trade name], manufactured by Nippon Soda Co., Ltd.) was adjusted to 1000 g ai/10a (1 g/m^2, 1429 g Product/10a) as the amount of the active ingredient and to 150 L/10a as the volume of diluent water.
50% w/w boscalid (Cantus DF [trade name], manufactured by BASF) was adjusted to 500 g ai/10a (0.5 g/m^2; 1000 g Product/10a) as the amount of the active ingredient and to 150 L/10a as the volume of diluent water.
50% w/w procymidone (Sumilex WP [trade name], manufactured by Sumitomo Chemical Agro) was adjusted to 500 g ai/10a (0.5 g/m^2, 1000 g Product/10a) as the amount of the active ingredient and to 150 L/10a as the volume of diluent water.
400 g/l iprodione (Rovral 500 Aqua [trade name], manufactured by Bayer Crop Science Co., Ltd.) was adjusted to 500 g ai/10a (0.5 g/m^2, […] Product/10a) as the amount of the active ingredient and to 150 L/10a as the volume of diluent water.
200 g/l fludioxonil (Seibia FLOWABLE [trade name], manufactured by Syngenta Japan K.K.) was adjusted to 500 g ai/10a (0.5 g/m^2, 2500 ml Product/10a) as the amount of the active ingredient and to 150 L/10a as the volume of diluent water.
400 g/l mepanipyrim (Flupika PLOWABLE [trade name], manufactured by Nippon Soda Co., Ltd.) was adjusted to 500 g ai/10a (0.5 g/m^2, 1250 ml Product/10a) as the amount of the active ingredient and to 150 L/10a as the volume of diluent water.
After spreading an agricultural mulch-sheet and opening planting holes (diameter of about 5 cm) for permanent planting through the mulch-sheet, the spray solutions prepared as described above were sprayed onto the planting holes such that the amount of treated active ingredient of each spray solution was 0.5 g/m^2 (150 L per 10a), followed by air-drying; subsequently, seedlings of Chinese cabbage (cultivar: Ouraku 60) grown for 4 weeks in cell mold trays (128 holes/nursery box) were planted such that 30 seedlings were planted in each test lot having an area of 2.5 m^2 with two replications.
Preparation was performed by diluting a chemical solution (Agrimycin WP100 [trade name] manufactured by Pfizer) containing oxytetracycline at 1.5% and streptomycin sulfate salt at 18.8% with water to 1/1500.
In a field spread with the agricultural mulch-sheet, Chinese cabbage seedlings (cultivar: Ouraku 60) grown by the same method as in Example 4 were planted by the same method as in Example 4, for spraying the spray solution prepared above in (1) (at each spray volume of 300 L/10a) twice (28 days and 42 days after the planting of the seedlings) on the stems and leaves.
49 days after the start of the tests, all the plants in each lot were examined about the severity level of the disease to assess the frequency of the disease and the disease control value. Herein, the frequency of the disease and the disease control value were determined in the same manner as described above. Because soft rot is a disease with damages hardly controlled, herein, even a chemical at the level C determined by the tests of the effects can practically be used.

[3] = system: bacteria causing the soft rot (Erwinia carotovora); assay: Inhibition test of growth of bacteria causing soft rot, Reference Test Example 4; format: cell-based; conditions: for formed colonies (growth state), grade: PSA medium, 27 degrees Celsius, 2 days
From the text: An inhibition test of the growth of bacteria causing the soft rot was done, when a control agent was directly applied to the bacteria causing the soft rot. A given volume of each pesticide of kresoxim-methyl (STROBY DF [trade name] manufactured by BASF), thiophanate methyl (Topsin M WP [trade name], manufactured by Nippon Soda Co., Ltd), boscalid (Cantus DF [trade name] manufactured by BASF), procymidone (Sumilex WP [trade name] manufactured by Sumitomo Chemical Agro Co., Ltd.) and streptomycin (Mycin Wettable powder [trade name] manufactured by Hokko Chemical Industry Co., Ltd.) was added together with a suspension of the bacteria causing the soft rot (Erwinia carotovora) to a preliminarily dissolved PSA culture medium (55 degrees Celsius) for subsequent thorough agitation, which was then spread on a plate for culturing at 27 degrees Celsius for 2 days, to examine the growth state. Subsequently, the formed colonies were examined according to the following three grades. • +: at the same level as the level of non-treated lot. Plus or minus: apparently less than the colonies of the non-treated lot. • −: almost no colonies observed.

Structure (SMILES): CO/N=C(/C(=O)OC)c1ccccc1COc1ccccc1C [Kresoxim-methyl, methyl=(E)-methoxyimino[2-(o-tolyloxymethyl)phenyl]acetate]
- Determination of effect [1]: C (C: Effective at low level (21 to 40 disease control value))
- Determination of effect [2]: C (C: Effective at low level (21 to 40 disease control value))
- formed colonies (growth state), grade ([3]; 100 ppm active ingredient): +, +
- formed colonies (growth state), grade ([3]; 500 ppm active ingredient): +, +
- formed colonies (growth state), grade ([3]; 1000 ppm active ingredient): +, +
- inhibition of growth of Erwinia carotovora (in words) ([3]; active ingredient concentration of 1,000 ppm): never inhibited the growth
